The text below walks through data of patent publication US20100317647A1 (priority 2009, published 2010).

By IC50 is commonly meant the point on the concentration scale where inhibition reaches its midpoint. Read a high IC50 as weaker potency in that assay.

Sequence of human Cat S (P25774 115-331): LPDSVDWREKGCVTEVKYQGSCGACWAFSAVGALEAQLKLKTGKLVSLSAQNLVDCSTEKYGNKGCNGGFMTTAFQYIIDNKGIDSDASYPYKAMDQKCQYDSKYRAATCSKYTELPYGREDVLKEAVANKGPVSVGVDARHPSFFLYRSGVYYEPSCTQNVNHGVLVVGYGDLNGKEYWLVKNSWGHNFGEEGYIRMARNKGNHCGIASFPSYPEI

The test has as its target human Cat S (Homo sapiens, UniProt P25774). Description: Cathepsin enzyme inhibition assay (fluorogenic peptide substrate cleavage). The class given is biochemical. The following applies: human Cat S 1 nM; substrate Z-Val-Val-Arg-AMC 20 μM; pH 6.5; fluorescence over 20 minutes. Put shortly:
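Fluorogenic cleavage of Z-Val-Val-Arg-AMC (20 μM) by 1 nM enzyme in 100 mM potassium phosphate pH 6.5, 5 mM EDTA, 5 mM DTT, 0.001% Triton X-100. Reaction started with substrate; fluorescence (ex 360/em 465 nm) followed over 20 minutes. IC50 by standard methods.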
As to `N#CC1(NC(=O)[C@@H]2C[C@@H](S(=O)(=O)c3ccccc3)C[C@H]2C(=O)N2[C@@H]3CC[C@H]2COC3)CC1` [Example 18, (1R,2R,4R)-4-Benzenesulfonyl-2-((1R,5S)-3-oxa-8-aza-bicyclo[3.2.1]octane-8-carbonyl)-cyclopentanecarboxylic acid (1-cyano-cyclopropyl)-amide], it took 2 nM to reach half-maximal inhibition (IC50).
The same measure for `N#CCNC(=O)[C@@H]1C[C@@H](S(=O)(=O)c2ccccc2Cl)C[C@H]1COc1ccc(Cl)cc1` (single isomer, unassigned) [Example 68]: 2.2 nM.
The same measure for `N#CC1(NC(=O)[C@@H]2C[C@H](S(=O)(=O)c3ccccc3Cl)C[C@H]2COc2ccc(Cl)cc2)CC1` (single isomer, unassigned) [Example 71]: 3080 nM.
The same measure for `CO[C@@H]1C[C@H](S(=O)(=O)c2ccc(-c3ccccc3)cc2C(F)(F)F)C[C@H]1C(=O)NC1(C#N)CC1` (racemic) [Example 171, (1R,2R,4R) and (1S,2S,4S)-2-Methoxy-4-(3-trifluoromethyl-biphenyl-4-sulfonyl)-cyclopentanecarboxylic acid (1-cyano-cyclopropyl)-amide]: 1.2 nM.
As for `COC1CN(C(=O)[C@@H]2C[C@H](S(=O)(=O)c3ccccc3)C[C@H]2C(=O)NC2(C#N)CC2)C1` [Example 22, (1R,2R,4R)-4-Benzenesulfonyl-2-(3-methoxy-azetidine-1-carbonyl)-cyclopentanecarboxylic acid (1-cyano-cyclopropyl)-amide], the midpoint of inhibition, the IC50, lay at 5.5 nM.
The molecule `CO[C@@H]1C[C@H](S(=O)(=O)c2ccc(-c3cnn(C)c3)cc2C(F)(F)F)C[C@H]1C(=O)NC1(C#N)CCN(C)CC1` (racemic) [Example 236, (1R,2R,4R) and (1S,2S,4S)-2-Methoxy-4-[4-(1-methyl-1H-pyrazol-4-yl)-2-trifluoromethyl-benzenesulfonyl]-cyclopentanecarboxylic acid (4-cyano-1-methyl-piperidin-4-yl)-amide] gave a half-inhibitory concentration (IC50) of 1.8 nM.
Take `CC(C)(C)N1CCN(c2ccc(S(=O)(=O)[C@@H]3C[C@@H](C(=O)NC4(C#N)CC4)[C@H](C(=O)N4CC(F)(F)C4)C3)c(C(F)(F)F)c2)CC1` [Example 130, (1R,2R,4R)-4-[4-(4-tert-Butyl-piperazin-1-yl)-2-trifluoromethyl-benzenesulfonyl]-2-(3,3-difluoro-azetidine-1-carbonyl)-cyclopentanecarboxylic acid (1-cyano-cyclopropyl)-amide]: the IC50 worked out at 0.4 nM.
For `CC(C)(O[C@@H]1C[C@H](S(=O)(=O)c2ccccc2Cl)C[C@H]1C(=O)NC1(C#N)CC1)c1ccc(Cl)cc1` (racemic) [Example 244, (1R,2R,4R) and (1S,2S,4S)-2-(2-(4-chlorophenyl)propan-2-yloxy)-4-(2-chlorophenylsulfonyl)-N-(1-cyanocyclopropyl)cyclopentanecarboxamide] the value was 14.7 nM; for `N#CC1(NC(=O)C2CC(S(=O)(=O)c3ccc(OC4COC4)cc3C(F)(F)F)CC2C(=O)N2CC(F)(F)C2)CC1` (stereo not shown) [Example 127, 2-(3,3-Difluoro-azetidine-1-carbonyl)-4-[4-(oxetan-3-yloxy)-2-trifluoromethyl-benzenesulfonyl]-cyclopentanecarboxylic acid (1-cyano-cyclopropyl)-amide], 1.1 nM.
For `CCOC(=O)N1CCC(C#N)(NC(=O)[C@@H]2C[C@@H](S(=O)(=O)c3ccc(-c4cnn(C)c4)cc3C(F)(F)F)C[C@H]2OC)CC1` (racemic) [Example 237, 4-Cyano-4-({(1R,2R,4R) and (1S,2S,4S)-2-methoxy-4-[4-(1-methyl-1H-pyrazol-4-yl)-2-trifluoromethyl-benzenesulfonyl]-cyclopentanecarbonyl}-amino)-piperidine-1-carboxylic acid ethyl ester] the value was 2.2 nM; for `CO[C@@H]1C[C@H](S(=O)(=O)c2ccc(N3CCN(C)CC3)cc2C(F)(F)F)C[C@H]1C(=O)NC1(C#N)CC1` (racemic) [Example 161, (1R,2R,4R) and (1S,2S,4S)-2-Methoxy-4-[4-(4-methyl-piperazin-1-yl)-2-trifluoromethyl-benzenesulfonyl]-cyclopentanecarboxylic acid (1-cyano-cyclopropyl)-amide], 1.5 nM.
The molecule `CO[C@@H]1C[C@H](S(=O)(=O)c2ccc(-c3ccnnc3)cc2C(F)(F)F)C[C@H]1C(=O)NC1(C#N)CC1` (racemic) [Example 110, (1R,2R,4R) and (1S,2S,4S)-2-Methoxy-4-(4-pyridazin-4-yl-2-trifluoromethyl-benzenesulfonyl)-cyclopentanecarboxylic acid (1-cyano-cyclopropyl)-amide] yielded an IC50 of 0.6 nM.
For `N#CC1(NC(=O)[C@@H]2C[C@@H](S(=O)(=O)c3ccccc3)C[C@H]2C(=O)N2C[C@H]3CC[C@@H](C2)O3)CC1` [Example 17, (1R,2R,4R)-4-Benzenesulfonyl-2-((1R,5S)-8-oxa-3-aza-bicyclo[3.2.1]octane-3-carbonyl)-cyclopentanecarboxylic acid (1-cyano-cyclopropyl)-amide] the value was 1.1 nM; for `CO[C@@H]1C[C@H](S(=O)(=O)c2ccc(N3CCOCC3)cc2C(F)(F)F)C[C@H]1C(=O)NC1(C#N)CC1` (racemic) [Example 176, (1R,2R,4R) and (1S,2S,4S)-2-Methoxy-4-(4-morpholin-4-yl-2-trifluoromethyl-benzenesulfonyl)-cyclopentanecarboxylic acid (1-cyano-cyclopropyl)-amide], 1.47 nM; for `N#CC1(NC(=O)[C@@H]2C[C@@H](S(=O)(=O)c3ccc(-c4ccnc(Cl)c4)cc3C(F)(F)F)C[C@H]2C(=O)N2CC(F)(F)C2)CC1` [Example 122, (1R,2R,4R)-4-[4-(2-Chloro-pyridin-4-yl)-2-trifluoromethyl-benzenesulfonyl]-2-(3,3-difluoro-azetidine-1-carbonyl)-cyclopentanecarboxylic acid (1-cyano-cyclopropyl)-amide], 0.2 nM.
The same measure for `CO[C@@H]1C[C@H](S(=O)(=O)c2ccc(Cl)cc2Cl)C[C@H]1C(=O)NC1(C#N)CC1` (racemic) [Example 50, (1R,2R,4R) and (1S,2S,4S)-4-(2,4-Dichloro-benzenesulfonyl)-2-methoxy-cyclopentanecarboxylic acid (1-cyano-cyclopropyl)-amide]: 25 nM; for `Cc1cc(Cl)ccc1S(=O)(=O)[C@@H]1C[C@@H](C(=O)NC2(C#N)CCN(C)CC2)[C@H](C(=O)N2CCOCC2)C1` [Example 45, (1R,2R,4R)-4-(4-Chloro-2-methyl-benzenesulfonyl)-2-(morpholine-4-carbonyl)-cyclopentanecarboxylic acid (4-cyano-1-methyl-piperidin-4-yl)-amide formiate]: 0.1 nM; for `CCOC(=O)N1CCC(C#N)(NC(=O)[C@@H]2C[C@@H](S(=O)(=O)c3ccc(Cl)cc3Cl)C[C@H]2OCc2ccc(Cl)cc2)CC1` (racemic) [Example 242, 4-{[(1R,2R,4R) and (1S,2S,4S)-2-(4-Chloro-benzyloxy)-4-(2,4-dichloro-benzenesulfonyl)-cyclopentanecarbonyl]-amino}-4-cyano-piperidine-1-carboxylic acid ethyl ester]: 92 nM.
The same measure for `C[C@H](Oc1ccc(S(=O)(=O)[C@@H]2C[C@@H](C(=O)NC3(C#N)CC3)[C@H](C(=O)N3CC(F)(F)C3)C2)c(Cl)c1)C(F)(F)F` [Example 135, (1R,2R,4R)-4-[2-Chloro-4-((S)-2,2,2-trifluoro-1-methyl-ethoxy)-benzenesulfonyl]-2-(3,3-difluoro-azetidine-1-carbonyl)-cyclopentanecarboxylic acid (1-cyano-cyclopropyl)-amide]: 2.4 nM; for `Cn1cc(-c2ccc(S(=O)(=O)[C@H]3C[C@@H](OC4CCC4)[C@H](C(=O)NC4(C#N)CC4)C3)c(C(F)(F)F)c2)cn1` (racemic) [Example 211, (1R,2R,4R) and (1S,2S,4S)-2-Cyclobutoxy-4-[4-(1-methyl-1H-pyrazol-4-yl)-2-trifluoromethyl-benzenesulfonyl]-cyclopentanecarboxylic acid (1-cyano-cyclopropyl)-amide]: 0.255 nM; for `N#CC1(NC(=O)[C@@H]2C[C@@H](S(=O)(=O)c3ccc(F)cc3Cl)C[C@H]2CF)CC1` [Example 157, (1R,2R,4R)-4-(2-Chloro-4-fluoro-benzenesulfonyl)-2-fluoromethyl-cyclopentanecarboxylic acid (1-cyano-cyclopropyl)-amide]: 61.5 nM.
For `N#CC1(NC(=O)[C@H]2CC[C@H](S(=O)(=O)c3ccc(F)cc3Cl)C2)CC1` (racemic) [Example 92, (1S,3S) and (1R,3R)-3-(2-Chloro-4-fluoro-benzenesulfonyl)-cyclopentanecarboxylic acid (1-cyano-cyclopropyl)-amide], the midpoint of inhibition, the IC50, lay at 385 nM.
For `N#CC1(NC(=O)[C@@H]2C[C@@H](S(=O)(=O)c3ccccc3Cl)C[C@H]2OCc2ccc(C(F)(F)F)cc2)CC1` (racemic) [Example 247, (1R,2R,4R) and (1S,2S,4S)-4-(2-chlorophenylsulfonyl)-N-(1-cyanocyclopropyl)-2-(4-(trifluoromethyl)benzyloxy)cyclopentanecarboxamide] the value was 5.98 nM; for `N#CC1(NC(=O)[C@@H]2C[C@@H](S(=O)(=O)c3ccccc3)C[C@H]2C(=O)N2CCOCC2)CCC1` [Example 35, (1R,2R,4R)-4-Benzenesulfonyl-2-(morpholine-4-carbonyl)-cyclopentanecarboxylic acid (1-cyano-cyclobutyl)-amide], 4 nM; for `N#CC1(NC(=O)[C@@H]2C[C@@H](S(=O)(=O)c3ccc(Br)cc3C(F)(F)F)C[C@H]2OC2CCS(=O)(=O)CC2)CC1` (racemic) [Example 181, (1R,2R,4R) and (1S,2S,4S)-4-(4-Bromo-2-trifluoromethyl-benzenesulfonyl)-2-[(tetrahydro-1,1-dioxo-2H-thiopyran-4-yl)oxy]-cyclopentanecarboxylic acid (1-cyano-cyclopropyl)-amide], 1.32 nM.
